Assay results from PubChem BioAssay AID1259407 (Chemical Carcinogenesis Research Information System (CCRIS), 2018).
Activity calls are given as the source filed them. No rule for the calls is given here.

Tested on: CCRIS mutagenicity, Ames/micronucleus/aberration tests
Assay: CCRIS mutagenicity studies
Excerpt: The CCRIS database contains chemical records with carcinogenicity, mutagenicity, tumor promotion, and tumor inhibition test results. It was developed by the National Cancer Institute (NCI). Data are derived from studies cited in primary journals, current awareness tools, NCI reports, and other sources. Test results have been reviewed by experts in carcinogenesis and mutagenesis.
CCRIS provides historical information from the years 1985 - 2011. It is no longer updated.
This is an archive assay for CCRIS mutagenicity studies.

C=O
mutagenic call (End Point: IN VITRO CHROMOSOMAL ABERRATIONS, Test System: SYRIAN HAMSTER EMBRYO (SHE) CELLS, Metabolic Activation: NONE): active; positive (structural changes)
mutagenic call (End Point: In vitro chromosomal aberrations, Test System: Chinese hamster ovary (CHO) cells, Metabolic Activation: None): active; positive
mutagenic call (End Point: In vitro chromosomal aberrations, Test System: Chinese hamster ovary (CHO) cells, Metabolic Activation: S-9): active; positive
mutagenic call (End Point: In vivo micronucleus, Test System: Peripheral blood erythrocytes, Species: Rat, Strain/Sex: F344/DuCrl / Male, Route: Inhalation): inactive; negative
mutagenic call (Test System: AMES SALMONELLA TYPHIMURIUM, Strain/Indicator: TA97, Metabolic Activation: NONE, Method: PREINCUBATION): inactive; negative
mutagenic call (Test System: AMES SALMONELLA TYPHIMURIUM, Strain/Indicator: TA97, Metabolic Activation: NONE, Method: STANDARD PLATE): active; positive
mutagenic call (Test System: AMES SALMONELLA TYPHIMURIUM, Strain/Indicator: TA98, Metabolic Activation: RAT, LIVER, S-9, AROCLOR 1254, Method: PREINCUBATION): active; positive
mutagenic call (Test System: AMES SALMONELLA TYPHIMURIUM, Strain/Indicator: TA98, Metabolic Activation: RAT, LIVER, S-9, AROCLOR 1254, Method: STANDARD PLATE): active; positive
mutagenic call (Test System: AMES SALMONELLA TYPHIMURIUM, Strain/Indicator: TA100, Metabolic Activation: MOUSE LIVER S-9, AROCLOR 1254, Method: PREINCUBATION): active; positive
mutagenic call (Test System: AMES SALMONELLA TYPHIMURIUM, Strain/Indicator: TA100, Metabolic Activation: NONE, Method: SUSPENSION): active; positive
mutagenic call (Test System: AMES SALMONELLA TYPHIMURIUM, Strain/Indicator: TA100, Metabolic Activation: RAT LIVER S-9, AROCLOR 1254, Method: PREINCUBATION): active; positive
mutagenic call (Test System: AMES SALMONELLA TYPHIMURIUM, Strain/Indicator: TA100, Metabolic Activation: RAT, LIVER, S-9, AROCLOR 1254, Method: STANDARD PLATE): active; positive
mutagenic call (Test System: AMES SALMONELLA TYPHIMURIUM, Strain/Indicator: TA100, Metabolic Activation: RAT, LIVER, S-9, AROCLOR 1254, Method: SUSPENSION): active; positive
mutagenic call (Test System: AMES SALMONELLA TYPHIMURIUM, Strain/Indicator: TA100, Metabolic Activation: RAT, LIVER, S-9, AROCLOR, Method: STANDARD PLATE): active; positive
mutagenic call (Test System: AMES SALMONELLA TYPHIMURIUM, Strain/Indicator: TA102, Metabolic Activation: NONE, Method: FLUCTUATION TEST): active; positive
mutagenic call (Test System: AMES SALMONELLA TYPHIMURIUM, Strain/Indicator: TA102, Metabolic Activation: NONE, Method: PREINCUBATION): active; positive
mutagenic call (Test System: AMES SALMONELLA TYPHIMURIUM, Strain/Indicator: TA104, Metabolic Activation: MOUSE LIVER S-9, AROCLOR 1254, Method: PREINCUBATION): active; positive
mutagenic call (Test System: AMES SALMONELLA TYPHIMURIUM, Strain/Indicator: TA104, Metabolic Activation: NONE, Method: PREINCUBATION): active; positive
mutagenic call (Test System: AMES SALMONELLA TYPHIMURIUM, Strain/Indicator: TA104, Metabolic Activation: RAT LIVER S-9, AROCLOR 1254, Method: PREINCUBATION): active; positive
mutagenic call (Test System: AMES SALMONELLA TYPHIMURIUM, Strain/Indicator: TA104, Metabolic Activation: RAT, LIVER, S-9, AROCLOR 1254, Method: PREINCUBATION): active; positive
mutagenic call (Test System: AMES SALMONELLA TYPHIMURIUM, Strain/Indicator: TA1535, Metabolic Activation: NONE, Method: PREINCUBATION): inactive; negative
mutagenic call (Test System: AMES SALMONELLA TYPHIMURIUM, Strain/Indicator: TA1535, Metabolic Activation: NONE, Method: STANDARD PLATE): inactive; negative
mutagenic call (Test System: AMES SALMONELLA TYPHIMURIUM, Strain/Indicator: TA1535, Metabolic Activation: RAT, LIVER, S-9, AROCLOR 1254, Method: PREINCUBATION): inactive; negative
mutagenic call (Test System: AMES SALMONELLA TYPHIMURIUM, Strain/Indicator: TA1535, Metabolic Activation: RAT, LIVER, S-9, AROCLOR 1254, Method: STANDARD PLATE): inactive; negative
mutagenic call (Test System: AMES SALMONELLA TYPHIMURIUM, Strain/Indicator: TA1537, Metabolic Activation: NONE, Method: PREINCUBATION): inactive; negative
mutagenic call (Test System: AMES SALMONELLA TYPHIMURIUM, Strain/Indicator: TA1537, Metabolic Activation: RAT, LIVER, S-9, AROCLOR 1254, Method: PREINCUBATION): inactive; negative
mutagenic call (Test System: AMES SALMONELLA TYPHIMURIUM, Strain/Indicator: TA1537, Metabolic Activation: RAT, LIVER, S-9, AROCLOR 1254, Method: STANDARD PLATE): active; positive
mutagenic call (Test System: AMES SALMONELLA TYPHIMURIUM, Strain/Indicator: TA1538, Metabolic Activation: NONE, Method: PREINCUBATION): inactive; negative
mutagenic call (Test System: AMES SALMONELLA TYPHIMURIUM, Strain/Indicator: TA1538, Metabolic Activation: NONE, Method: STANDARD PLATE): inactive; negative
mutagenic call (Test System: AMES SALMONELLA TYPHIMURIUM, Strain/Indicator: TA2638, Metabolic Activation: NONE, Method: STANDARD PLATE): active; positive
mutagenic call (Test System: AMES SALMONELLA TYPHIMURIUM, Strain/Indicator: TA2638A, Metabolic Activation: NONE, Method: PREINCUBATION): active; positive
mutagenic call (Test System: AMES SALMONELLA TYPHIMURIUM, Strain/Indicator: UTH8413, Metabolic Activation: NONE, Method: STANDARD PLATE): inactive; negative
mutagenic call (Test System: AMES SALMONELLA TYPHIMURIUM, Strain/Indicator: UTH8413, Metabolic Activation: RAT, LIVER, S-9, AROCLOR, Method: STANDARD PLATE): inactive; negative
mutagenic call (Test System: AMES SALMONELLA TYPHIMURIUM, Strain/Indicator: UTH8414, Metabolic Activation: NONE, Method: STANDARD PLATE): inactive; negative
mutagenic call (Test System: AMES SALMONELLA TYPHIMURIUM, Strain/Indicator: UTH8414, Metabolic Activation: RAT, LIVER, S-9, AROCLOR, Method: STANDARD PLATE): inactive; negative
mutagenic call (Test System: CHINESE HAMSTER OVARY, Strain/Indicator: CHO-K1 (HPRT)/6-THIOGUANINE, Metabolic Activation: NONE, Method: SUSPENSION): active; positive
mutagenic call (Test System: CHINESE HAMSTER OVARY, Strain/Indicator: CHO-K1 (HPRT)/6-THIOGUANINE, Metabolic Activation: NONE, Method: SUSPENSION/PLATE): inactive; negative
mutagenic call (Test System: CHINESE HAMSTER V-79, Strain/Indicator: V-79/6-THIOGUANINE, Metabolic Activation: NONE): active; positive
mutagenic call (Test System: E. COLI, Strain/Indicator: 016 POLA, Metabolic Activation: NONE, Method: PREINCUBATION): inactive; negative
mutagenic call (Test System: E. COLI, Strain/Indicator: H/R30R, Metabolic Activation: NONE, Method: PREINCUBATION): active; positive
mutagenic call (Test System: E. COLI, Strain/Indicator: HS30R UVRA, Metabolic Activation: NONE, Method: PREINCUBATION): active; positive
mutagenic call (Test System: E. COLI, Strain/Indicator: K12(AB1157) (WILD TYPE), Metabolic Activation: NONE, Method: SUSPENSION/PLATE): active; positive
mutagenic call (Test System: E. COLI, Strain/Indicator: K12(AB1886) (UVRA), Metabolic Activation: NONE, Method: SUSPENSION/PLATE): inactive; negative
mutagenic call (Test System: E. COLI, Strain/Indicator: K12(AB2480) (RECA/UVRA), Metabolic Activation: NONE, Method: SUSPENSION/PLATE): inactive; negative
mutagenic call (Test System: E. COLI, Strain/Indicator: NG30 RECA, Metabolic Activation: NONE, Method: PREINCUBATION): inactive; negative
mutagenic call (Test System: E. COLI, Strain/Indicator: WP2 (PKM101), Metabolic Activation: NONE, Method: PREINCUBATION): active; positive
mutagenic call (Test System: E. COLI, Strain/Indicator: WP2, Metabolic Activation: NONE, Method: PREINCUBATION): active; positive
mutagenic call (Test System: E. COLI, Strain/Indicator: WP2 UVRA (PKM101), Metabolic Activation: NONE, Method: PREINCUBATION): active; positive
mutagenic call (Test System: E. COLI, Strain/Indicator: WP2 UVRA (PKM101), Metabolic Activation: NONE, Method: STANDARD PLATE): active; positive
mutagenic call (Test System: E. COLI, Strain/Indicator: WP2 UVRA, Metabolic Activation: NONE, Method: PREINCUBATION): active; positive
mutagenic call (Test System: MOUSE LYMPHOMA, Strain/Indicator: L5178Y (TK+/TK-), Metabolic Activation: NONE, Method: SUSPENSION/PLATE): active; positive
